Measured values published in US20240197812A1, “Methods of Treating Cardiac Injury” (Proletariat Therapeutics, Inc., priority 2022, published 2024).

Tested on: critically ill patients with vasodilatory shock
Experiment: Prospective observational study: safety (thromboembolic events, serum troponin elevation)
Assay type: in vivo
Settings: for Elevated serum troponin - %: troponin I level ≥20 ng/L
Method: A prospective observational study was conducted to evaluate the efficacy, safety feasibility of using angiotensin II as a primary vasopressor for treatment of critically ill patients with vasodilatory shock.
Study Population: A total of 40 patients receiving angiotensin II were matched to 80 control patients who received conventional vasopressors (norepinephrine, vasopressin, metaraminol, epinephrine, or combinations thereof). […] The mean patient age was 63 years (SD 14 years), two-thirds of patients were male, and the median APACHE III score was 65 (IQR 49 to 80). There were no significant differences between groups in terms of demographics, clinical characteristics, illness severity, baseline vasopressor type and dose, physiological parameters, or biochemistry.
Vasodilatory shock was defined by a mean arterial pressure <65 mmHg in the presence of sufficient volume resuscitation and preserved cardiac output, based on either a cardiac index ≥2.3 L/min/m^2, a central venous oxygen saturation ≥70%, or clinician judgement. Patients were excluded if they had kidney failure (i.e., chronic hemodialysis, peritoneal dialysis or a baseline estimated glomerular filtration rate <15 mL/min/1.73 m^2) or were diagnosed with arterial (acute coronary syndrome, ischemic stroke, or mesenteric ischemia) or venous thrombosis (deep vein thrombosis or pulmonary embolism) within the preceding 6 months. […] The mean patient age was 63 (SD 14) years, two-thirds of patients were male, and the median APACHE III score was 65 (IQR 49 to 80). There were no significant differences between the angiotensin II group and the conventional vasopressor group in terms of demographics, clinical characteristics, illness severity, vasopressor type and use, physiological parameters, or biochemistry.
Intervention: Infusions of angiotensin II were initiated to deliver a dose between 5 and 10 ng/kg/min. The dose was adjusted every 5 minutes according to a protocolized titration scheme to achieve a mean arterial pressure (MAP) of ≥65 mmHg (dose range 1.25 to 40 ng/kg/min). During the adjustment period, infusions of other vasopressor agents were weaned and discontinued where possible. Where the MAP was inadequate despite the maximum dose of angiotensin II, additional vasopressor agents were prescribed at the discretion of the clinician. The use of vasopressin (dose range 0.01 to 0.04 IU/min) was preferred over the use of norepinephrine (dose range 0 to 40 mcg/min). Angiotensin II was continued until resolution of shock, death, or for a maximum of 7 days. If ongoing vasopressor therapy was required after this time, norepinephrine was utilized.
Control: The control arm included critically ill patients with vasodilatory shock who received conventional vasopressors. To address confounding by indication and other sources of bias arising from the use of non-randomized data, a propensity score was estimated for the likelihood of treatment with angiotensin II to match patients in the intervention arm to their nearest neighbor in the control arm using a 1:2 ratio without replacement. Propensity scores were generated based on age, sex, APACHE II score, serum creatinine level, vasopressor type and dose at enrollment, and time from ICU admission and initiation of any vasopressor to initiation of angiotensin II.
Secondary Outcomes: Secondary renal outcomes included new or progressive AKI, creatinine trajectory, the requirement for CRRT, time to CRRT liberation, and the development of a major adverse kidney event at day 7 (MAKE7). New AKI was defined and staged according to the Kidney Disease Improving Global Outcomes (KDIGO) criteria as a rise in serum creatinine of ≥26.5 μmol/L in 48 hours or as a ≥50% increase in serum creatinine from baseline within 7 days. Progressive AKI was defined as an increase in AKI severity by at least one KDIGO stage. MAKE7 was a composite of death, dialysis dependence, and a persistent 50% increase in serum creatinine level. […]

## CC[C@H](C)[C@H](NC(=O)[C@H](Cc1ccc(O)cc1)NC(=O)[C@@H](NC(=O)[C@H](CCCNC(=N)N)NC(=O)[C@@H](N)CC(=O)O)C(C)C)C(=O)N[C@@H](Cc1cnc[nH]1)C(=O)N1CCC[C@H]1C(=O)N[C@@H](Cc1ccccc1)C(=O)O [Angiotensin II, Asp-Arg-Val-Tyr-Ile-His-Pro-Phe]
In vivo
  Deep vein thrombosis - %: (5) %
  Pulmonary embolus - %: (10) %
Number of patients
  Deep vein thrombosis - no.: 2
  Pulmonary embolus - no.: 4
  Elevated serum troponin - %: (8) %
Listed as angiotensin II
  Elevated serum troponin - %: 8%
